Source: US5569456A, “Biologically active rupununines” (priority 1994, dated 1996)

Tests used:
[1] = Solubility of crystalline rupununine in organic solvents; format: physicochemical; conditions: crystalline white solid
Experimental: (§1) Rupununine (100 mg.) was dissolved in the minimum volume of distilled acetone (2 ml). The solution was warmed gently, filtered and then left in the refrigerator overnight. This produced white needles which were recrystallized in acetone giving crystalline rupununine (45 mg.). Further crystalline samples were also obtained by the same treatment with acetone, of Fraction C.1 and C.2. The crystals were dried in a drying pistol under nitrogen, over phosphorus pentoxide at 60° C. overnight. […] The crystals melted between 214°-217° C., and were fairly stable, if kept under nitrogen at room temperature, even for prolonged periods.

[2] = Stability of rupununine crystals under nitrogen at room temperature; format: physicochemical; conditions: crystals kept under nitrogen at room temperature, prolonged periods
Experimental: as §1

solubility in chloroform ([1]; chloroform): fairly soluble | solubility in ethanol ([1]; ethanol): fairly soluble | solubility in ether ([1]; ether): only partially soluble | solubility in methanol ([1]; methanol): fairly soluble | stability [2]: fairly stable
Substance: rupununine
